In patent publication US20180186742A1, “PICOLINAMIDES AS FUNGICIDES” (Dow AgroSciences LLC, priority 2017, published 2018):
Where two headings read alike, the source gives them in different places.

Tests used:
Type in all cases: in vivo
[1] = test system: Pseudoperonospora cubensis; assay: Cucumber downy mildew (PSPECU), disease control on cucumber seedlings; conditions: 24 h, 1DP (1 Day Protectant) test at 100 ppm
Description: Technical grades of materials were dissolved in acetone, which were then mixed with nine volumes of water containing 110 ppm Triton X-100. The fungicide solutions were applied onto wheat seedlings using an automated booth sprayer to run-off. All sprayed plants were allowed to air dry prior to further handling. All fungicides were evaluated using the aforementioned method for their activity vs. all target diseases, unless stated otherwise. Wheat leaf blotch and brown rust activity were also evaluated using track spray applications, in which case the fungicides were formulated as EC formulations, containing 0.1% Trycol 5941 in the spray solutions. Cucumber seedlings (variety Bush Pickle) were grown in soil-less Metro mix, with one plant per pot, and used in the test when 12 to 14 days old. Plants were inoculated with a spore suspension 24 hr following fungicide treatments. Test plants were inoculated with an aqueous spore suspension of Pseudoperonospora cubensis 24 hr after fungicide treatments. After inoculation the plants were kept in a dew room at 22° C. with 100% relative humidity for 24 hr to permit spores to germinate and infect the leaf. The plants were then transferred to a greenhouse set at 20° C. until disease was fully expressed. Fungicide formulation, application and disease assessment on the sprayed leaves followed the procedures as described in the Example A.

[2] = test system: Alternaria solani; assay: Tomato early blight (ALTESO), disease control on tomato plants; conditions: 1DP test at 100 ppm, read-out: ALTESO disease control rating
Description: Technical grades of materials were dissolved in acetone, which were then mixed with nine volumes of water containing 110 ppm Triton X-100. The fungicide solutions were applied onto wheat seedlings using an automated booth sprayer to run-off. All sprayed plants were allowed to air dry prior to further handling. All fungicides were evaluated using the aforementioned method for their activity vs. all target diseases, unless stated otherwise. Wheat leaf blotch and brown rust activity were also evaluated using track spray applications, in which case the fungicides were formulated as EC formulations, containing 0.1% Trycol 5941 in the spray solutions. Tomato plants (variety Outdoor Girl) were propagated in soil-less Metro mix, with each pot having one plant, and used when 12 to 14 days old. Test plants were inoculated with an aqueous spore suspension of Alternaria solani 24 hr after fungicide treatments. After inoculation the plants were kept in 100% relative humidity (one day in a dark dew chamber followed by two to three days in a lighted dew chamber at 20° C.) to permit spores to germinate and infect the leaf. The plants were then transferred to a growth room at 22° C. for disease to develop. Fungicide formulation, application and disease assessment on the sprayed leaves followed the procedures as described in the Example A.

[3] = test system: Magnaporthe grisea; Anamorph: Pyricularia oryzae; assay: whole plant or invertebrate; conditions: 24 h, read-out: PYRIOR Disease Control
[4] = test system: Zymoseptoria tritici; assay: Leaf blotch of wheat (SEPTTR), disease control on wheat seedlings; conditions: low volume application at 121.5 g/H
Outline: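 Z. tritici spores were inoculated onto wheat seedlings (Yuma, first leaf emerged) either before or after treatment. Treatment was an automated spray to run-off of acetone/Triton X-100 water solutions, or a track spray of EC formulations with 0.1% Trycol 5941. Plants were held in dew chambers at 20 °C and then a greenhouse at 20 °C. First-leaf severity (0–100%) was converted to percent control against untreated plants.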

[5] = test system: Cercospora beticola; assay: Leaf spot of sugar beets (CERCBE), disease control on sugar beet plants; conditions: 1DP test at 100 ppm, read-out: CERCBE disease control rating
Description: Technical grades of materials were dissolved in acetone, which were then mixed with nine volumes of water containing 110 ppm Triton X-100. The fungicide solutions were applied onto wheat seedlings using an automated booth sprayer to run-off. All sprayed plants were allowed to air dry prior to further handling. All fungicides were evaluated using the aforementioned method for their activity vs. all target diseases, unless stated otherwise. Wheat leaf blotch and brown rust activity were also evaluated using track spray applications, in which case the fungicides were formulated as EC formulations, containing 0.1% Trycol 5941 in the spray solutions. Sugar beet plants (variety HH88) were grown in soil-less Metro mix and trimmed regularly to maintain a uniform plant size prior to test. Plants were inoculated with a spore suspension 24 hr after fungicide treatments. Inoculated plants were kept in a dew chamber at 22° C. for 48 hr then incubated in a greenhouse set at 24° C. under a clear plastic hood with bottom ventilation until disease symptoms were fully expressed. Fungicide formulation, application and disease assessment on the sprayed leaves followed the procedures as described in the Example A.

[6] = test system: Puccinia triticina; assay: Wheat brown rust (PUCCRT), disease control on wheat seedlings; conditions: low volume application at 121.5 g/H
Outline: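 Compounds in acetone, diluted with nine volumes of water containing 110 ppm Triton X-100, sprayed to run-off on first-leaf Yuma wheat seedlings; track-spray tests used EC formulations with 0.1% Trycol 5941. Puccinia triticina spores applied before or after treatment. Overnight dark dew room at 22° C, 100% humidity, then greenhouse at 24° C.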

[7] = 24 h, 1 Day Protectant, read-out: SEPTTR disease control, 1DP, LV activity
[8] = 72 h, 3 Day Curative, read-out: SEPTTR disease control, 3DC, LV activity
[9] = 24 h, 1 Day Protectant, read-out: PUCCRT disease control, 1DP, LV activity
[10] = 72 h, 3 Day Curative, read-out: PUCCRT disease control, 3DC, LV activity

| SMILES | pest or weed control at 100 ppm [1] | pest or weed control at 100 ppm [2] | pest or weed control at 100 ppm [3] | pest or weed control at 121.5 g/ha [4, 7] | pest or weed control at 121.5 g/ha [4, 8] | pest or weed control at 100 ppm [5] | pest or weed control at 121.5 g/ha [6, 9] | pest or weed control at 121.5 g/ha [6, 10] |
| --- | --- | --- | --- | --- | --- | --- | --- | --- |
| COCCC(=O)Oc1c(OC)ccnc1C(=O)N[C@@H](C)C(=O)O[C@@H](C)[C@H](c1ccc(F)cc1C)C(C)C [Compound 220] | < 0% | < 80% | > 80% | > 80% | > 80% | > 80% | > 80% | > 80% |
| COc1ccnc(C(=O)N[C@@H](C)C(=O)O[C@@H](C)[C@H](c2ccc(F)cc2C)C(C)C)c1OC(C)=O [Compound 186] | < 80% | > 80% | > 80% | > 80% | > 80% | > 80% | > 80% | > 80% |
| CCC(C)C(=O)Oc1c(OC)ccnc1C(=O)N[C@@H](C)C(=O)O[C@@H](C)[C@H](c1ccc(F)cc1C)C(C)C (some centres unmarked) [Compound 355] | < 80% | > 80% | < 80% | > 80% | > 80% | > 80% | > 80% | < 80% |
| COc1ccnc2c(=O)n([C@@H](C)C(=O)O[C@@H](C)[C@H](c3ccc(F)cc3C)C(C)C)c(=O)oc12 [Compound 217] | < 0% | < 80% | > 80% | > 80% | > 80% | > 80% | > 80% | > 80% |
